Measured values taken from ChEMBL document CHEMBL1147578, “Design, synthesis, and SAR of anthranilamide-based factor Xa inhibitors with improved functional activity” (Bioorg Med Chem Lett, 2004).

Key:
Prothrombin = Prothrombin (Homo sapiens, UniProt P00734); experiment: Inhibitory activity against thrombin.
[1] = Oral bioavailability in rat (dose 6 mg/kg); assay type: ADME, organism-based; conditions: in vivo
Serine protease 1 = Serine protease 1 (Homo sapiens, UniProt P07477); experiment: Inhibitory activity against trypsin.
Chain of Serine protease 1 (P07477 whole entry): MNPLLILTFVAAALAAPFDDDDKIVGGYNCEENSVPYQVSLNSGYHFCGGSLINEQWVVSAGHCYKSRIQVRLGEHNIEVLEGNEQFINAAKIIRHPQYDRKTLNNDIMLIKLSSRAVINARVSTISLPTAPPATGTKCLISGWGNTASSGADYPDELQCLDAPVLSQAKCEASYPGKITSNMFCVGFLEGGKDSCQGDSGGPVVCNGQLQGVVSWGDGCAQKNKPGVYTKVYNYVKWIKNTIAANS

Plasma kallikrein = Plasma kallikrein (Homo sapiens, UniProt P03952); experiment: Inhibitory activity against kallikrein
Chain of Plasma kallikrein (P03952 20-390 limits assumed): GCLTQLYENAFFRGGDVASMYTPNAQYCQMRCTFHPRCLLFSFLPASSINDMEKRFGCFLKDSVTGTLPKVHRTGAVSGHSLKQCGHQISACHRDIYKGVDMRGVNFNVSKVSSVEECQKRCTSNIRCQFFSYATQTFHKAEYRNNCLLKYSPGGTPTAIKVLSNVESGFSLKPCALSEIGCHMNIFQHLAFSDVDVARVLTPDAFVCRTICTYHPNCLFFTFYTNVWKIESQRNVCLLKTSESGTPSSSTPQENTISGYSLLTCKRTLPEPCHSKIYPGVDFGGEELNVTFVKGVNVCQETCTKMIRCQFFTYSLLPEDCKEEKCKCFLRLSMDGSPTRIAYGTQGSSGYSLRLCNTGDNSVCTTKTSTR
Chain of Plasma kallikrein (P03952 391-638 limits assumed): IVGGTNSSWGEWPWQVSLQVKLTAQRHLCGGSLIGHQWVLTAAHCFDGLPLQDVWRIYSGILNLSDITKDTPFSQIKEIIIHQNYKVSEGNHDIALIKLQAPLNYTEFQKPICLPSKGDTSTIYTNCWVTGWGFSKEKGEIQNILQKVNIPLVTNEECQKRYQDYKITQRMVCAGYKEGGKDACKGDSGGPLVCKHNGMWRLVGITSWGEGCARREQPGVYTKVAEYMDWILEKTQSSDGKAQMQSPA

Homo sapiens = species: Homo sapiens; experiment: Concentration required to double the lag time of maximum thrombin generation in human plasma-based thrombin generation assay; assay type: functional
Plasminogen = Plasminogen (Homo sapiens, UniProt P00747); experiment: Inhibitory activity against plasmin.
Chain of Plasminogen (P00747 97-580 limits assumed): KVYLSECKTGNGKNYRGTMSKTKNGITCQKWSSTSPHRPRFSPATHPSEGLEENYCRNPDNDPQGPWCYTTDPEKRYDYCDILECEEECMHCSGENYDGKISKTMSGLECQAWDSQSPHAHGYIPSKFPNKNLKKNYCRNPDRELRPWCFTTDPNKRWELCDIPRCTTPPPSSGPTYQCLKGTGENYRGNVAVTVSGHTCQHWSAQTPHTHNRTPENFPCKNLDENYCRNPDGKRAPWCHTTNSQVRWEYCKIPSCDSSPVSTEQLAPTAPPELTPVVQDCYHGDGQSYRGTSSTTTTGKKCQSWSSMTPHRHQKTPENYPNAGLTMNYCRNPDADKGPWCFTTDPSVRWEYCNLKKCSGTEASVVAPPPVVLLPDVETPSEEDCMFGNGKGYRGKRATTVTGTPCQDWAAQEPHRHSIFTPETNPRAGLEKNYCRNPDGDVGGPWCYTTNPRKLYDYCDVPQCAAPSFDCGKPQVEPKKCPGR
Chain of Plasminogen (P00747 581-810 limits assumed): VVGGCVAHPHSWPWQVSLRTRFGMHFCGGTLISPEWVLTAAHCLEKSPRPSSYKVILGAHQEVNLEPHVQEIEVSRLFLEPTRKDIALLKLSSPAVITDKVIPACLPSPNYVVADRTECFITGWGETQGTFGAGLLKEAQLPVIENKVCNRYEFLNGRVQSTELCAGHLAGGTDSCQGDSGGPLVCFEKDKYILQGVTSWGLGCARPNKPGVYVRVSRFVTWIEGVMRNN

Coagulation factor X [2] = target: T1, Coagulation factor X (Homo sapiens, UniProt P00742); experiment: In vitro inhibitory activity against Coagulation factor X
T1 sequence (P00742 41-179 limits assumed): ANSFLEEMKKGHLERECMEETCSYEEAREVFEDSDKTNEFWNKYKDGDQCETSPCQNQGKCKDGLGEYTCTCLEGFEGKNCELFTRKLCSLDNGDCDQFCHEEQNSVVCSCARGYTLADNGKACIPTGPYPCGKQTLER
T1 sequence (P00742 235-488 limits assumed): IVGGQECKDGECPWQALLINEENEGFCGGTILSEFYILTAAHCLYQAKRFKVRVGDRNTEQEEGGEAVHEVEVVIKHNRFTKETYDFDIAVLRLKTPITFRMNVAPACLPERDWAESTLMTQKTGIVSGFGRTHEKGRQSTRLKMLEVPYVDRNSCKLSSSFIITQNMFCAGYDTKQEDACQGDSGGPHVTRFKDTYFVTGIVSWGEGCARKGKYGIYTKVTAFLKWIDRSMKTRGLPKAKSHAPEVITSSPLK

[3] = target: Vitamin K-dependent protein C (Homo sapiens, UniProt P04070); experiment: Inhibitory activity against activated protein C
Chain of Vitamin K-dependent protein C (P04070 43-197 limits assumed): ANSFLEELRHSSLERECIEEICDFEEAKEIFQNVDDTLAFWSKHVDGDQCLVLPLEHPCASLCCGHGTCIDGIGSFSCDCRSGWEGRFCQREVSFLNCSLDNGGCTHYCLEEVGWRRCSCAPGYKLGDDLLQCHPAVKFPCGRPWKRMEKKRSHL
Chain of Vitamin K-dependent protein C (P04070 212-461 limits assumed): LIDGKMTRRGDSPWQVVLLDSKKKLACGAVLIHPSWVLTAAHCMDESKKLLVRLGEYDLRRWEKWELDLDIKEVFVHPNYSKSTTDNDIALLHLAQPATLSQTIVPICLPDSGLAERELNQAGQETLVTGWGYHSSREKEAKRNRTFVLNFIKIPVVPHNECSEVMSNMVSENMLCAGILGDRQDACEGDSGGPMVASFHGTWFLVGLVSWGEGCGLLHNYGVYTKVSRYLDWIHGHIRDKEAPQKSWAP

[4] = target: Tissue-type plasminogen activator (Homo sapiens, UniProt P00750); experiment: Inhibitory activity against tissue type plasminogen activator.
Chain of Tissue-type plasminogen activator (P00750 whole entry): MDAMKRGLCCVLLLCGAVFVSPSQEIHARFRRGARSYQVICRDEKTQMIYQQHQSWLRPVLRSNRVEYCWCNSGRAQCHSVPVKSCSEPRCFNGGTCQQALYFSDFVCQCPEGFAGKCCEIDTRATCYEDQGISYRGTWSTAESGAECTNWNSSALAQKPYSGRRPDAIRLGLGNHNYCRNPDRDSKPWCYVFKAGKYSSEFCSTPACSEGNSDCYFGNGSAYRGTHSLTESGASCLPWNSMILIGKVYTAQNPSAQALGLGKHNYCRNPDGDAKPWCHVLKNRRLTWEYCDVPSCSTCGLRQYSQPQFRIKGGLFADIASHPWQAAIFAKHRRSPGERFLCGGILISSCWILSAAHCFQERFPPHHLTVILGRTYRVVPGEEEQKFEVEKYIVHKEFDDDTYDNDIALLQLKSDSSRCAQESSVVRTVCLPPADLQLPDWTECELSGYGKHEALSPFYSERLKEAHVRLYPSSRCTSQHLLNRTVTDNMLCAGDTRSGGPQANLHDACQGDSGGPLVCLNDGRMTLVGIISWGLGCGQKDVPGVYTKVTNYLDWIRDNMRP

Coagulation factor X [5] = target: T1, Coagulation factor X; experiment: In vitro inhibitory activity against coagulation factor X.
Oryctolagus cuniculus [6] = species: Oryctolagus cuniculus; experiment: Percent inhibition of thrombus formation in rabbit deep vein thrombosis at 0.25 uM; assay type: functional
[7] = Plasma clearance after intravenous administration of 0.4 mg/kg of dose in rats was determined; assay type: ADME, organism-based; parameters: dose 0.4 mg/kg, route intravenous; conditions: rat
[8] = Half life after intravenous administration was determined in rats at 0.4 mg/kg; conditions: rat, in vivo
Oryctolagus cuniculus [9] = species: Oryctolagus cuniculus; experiment: Percent inhibition of thrombus formation in rabbit deep vein thrombosis at 0.83 uM; assay type: functional
Rattus norvegicus [10] = experiment: Volume of distribution after intravenous administration of 0.4 mg/kg of dose in rats was determined; conditions: in vivo
[11] = Oral bioavailability in rats at 6 mg/kg; assay type: ADME, organism-based; conditions: rat, in vivo
Coagulation factor X [12] = target: T1, Coagulation factor X; experiment: Inhibitory activity against Coagulation factor X
[13] = Oral bioavailability in dog; assay type: ADME, organism-based, Canis lupus familiaris; conditions: in vivo
Rattus norvegicus [14] = species: Rattus norvegicus; experiment: Effective dose required for antithrombotic activity in rat vena cava stasis model; assay type: functional

## CN(Cc1ccc(C(=O)Nc2ccc(Cl)cc2C(=O)Nc2ccc(Cl)cn2)cc1)C(=N)N
Prothrombin
  IC50: > 11 µM
[1]
  bioavailability: < 1%
Serine protease 1
  IC50: > 11 µM
Plasma kallikrein
  IC50: 380 nM
Homo sapiens
  Activity: 0.38 µM
Plasminogen
  IC50: > 11 µM
Coagulation factor X [2]
  Ki: 0.1 nM
[3]
  IC50: > 11 µM
[4]
  IC50: > 11 µM
Coagulation factor X [5]
  IC50: 1 nM

## CC(=N)N(C)Cc1ccc(C(=O)Nc2ccc(Cl)cc2C(=O)Nc2ccc(Cl)cn2)cc1
Prothrombin
  IC50: > 11 µM
[1]
  bioavailability: < 1%
Serine protease 1
  IC50: > 11 µM
Plasma kallikrein
  IC50: 500 nM
Homo sapiens
  Activity: 0.5 µM
Plasminogen
  IC50: > 11 µM
[3]
  IC50: > 11 µM
[4]
  IC50: > 11 µM

## CN1CCN=C1N(C)Cc1ccc(C(=O)Nc2ccc(Cl)cc2C(=O)Nc2ccc(Cl)cn2)cc1
Prothrombin
  IC50: > 11 µM
[1]
  bioavailability: < 1%
Serine protease 1
  IC50: > 11 µM
Plasma kallikrein
  IC50: 300 nM
Homo sapiens
  Activity: 0.3 µM
Plasminogen
  IC50: > 11 µM
Coagulation factor X [2]
  Ki: 0.3 nM
[3]
  IC50: > 11 µM
[4]
  IC50: > 11 µM
Coagulation factor X [5]
  IC50: 0.3 nM

## N=C1OCCN1Cc1ccc(C(=O)Nc2ccc(Cl)cc2C(=O)Nc2ccc(Cl)cn2)cc1
Prothrombin
  IC50: > 11 µM
Oryctolagus cuniculus [6]
  Inhibition: 25%
[1]
  bioavailability: 44%
[7]
  clearance: 18.3 mL/min/kg
Serine protease 1
  IC50: > 11 µM
[8]
  half-life: 510 min
Plasma kallikrein
  IC50: 560 nM
Homo sapiens
  Activity: 0.56 µM
Oryctolagus cuniculus [9]
  Inhibition: 40%
Plasminogen
  IC50: > 11 µM
[3]
  IC50: > 11 µM
Rattus norvegicus [10]
  Volume of distribution: 13.6 L/kg
[4]
  IC50: > 11 µM

## C[N+](C)(C)Cc1ccc(C(=O)Nc2ccc(Cl)cc2C(=O)Nc2ccc(Cl)cn2)cc1
Prothrombin
  IC50: > 11 µM
[1]
  bioavailability: < 1%
Serine protease 1
  IC50: > 11 µM
Plasma kallikrein
  IC50: 130 nM
Homo sapiens
  Activity: 0.3 µM
Plasminogen
  IC50: > 11 µM
Coagulation factor X [2]
  Ki: 1 nM
[3]
  IC50: > 11 µM
[4]
  IC50: > 11 µM
Coagulation factor X [5]
  IC50: 0.8 nM

## CN(C)Cc1ccc(C(=O)Nc2ccc(Cl)cc2C(=O)Nc2ccc(Cl)cn2)cc1
Prothrombin
  IC50: > 11 µM
[7]
  clearance: 20.6 mL/min/kg
Serine protease 1
  IC50: > 11 µM
[8]
  half-life: 450 min
Plasma kallikrein
  IC50: 500 nM
Homo sapiens
  Activity: 3.2 µM
Plasminogen
  IC50: > 11 µM
[3]
  IC50: > 11 µM
Rattus norvegicus [10]
  Volume of distribution: 32.9 L/kg
[4]
  IC50: > 11 µM
[11]
  bioavailability: 100%

## N=C1NCCN1Cc1ccc(C(=O)Nc2ccc(Cl)cc2C(=O)Nc2ccc(Cl)cn2)cc1
Prothrombin
  IC50: > 11 µM
[1]
  bioavailability: < 1%
Serine protease 1
  IC50: > 11 µM
Plasma kallikrein
  IC50: 210 nM
Homo sapiens
  Activity: 0.58 µM
Plasminogen
  IC50: > 11 µM
Coagulation factor X [2]
  Ki: 0.5 nM
[3]
  IC50: > 11 µM
[4]
  IC50: > 11 µM
Coagulation factor X [5]
  IC50: 1.5 nM

## CN(C)NCc1ccc(C(=O)Nc2ccc(Cl)cc2C(=O)Nc2ccc(Cl)cn2)cc1
Prothrombin
  IC50: > 11 µM
[1]
  bioavailability: 4%
Serine protease 1
  IC50: > 11 µM
Plasma kallikrein
  IC50: 640 nM
Homo sapiens
  Activity: 1.5 µM
Plasminogen
  IC50: > 11 µM
Coagulation factor X [12]
  Ki: 0.3 nM
[3]
  IC50: > 11 µM
[4]
  IC50: > 11 µM
Coagulation factor X [5]
  IC50: 0.9 nM

## COc1cc(Cl)cc(C(=O)Nc2ccc(Cl)cn2)c1NC(=O)c1scc(CN(C)C2=NCCO2)c1Cl
[13]
  bioavailability: 40%
Rattus norvegicus [14]
  ED50: 0.8 µM

## C/N=C(/N)N(C)Cc1ccc(C(=O)Nc2ccc(Cl)cc2C(=O)Nc2ccc(Cl)cn2)cc1
Prothrombin
  IC50: > 11 µM
Serine protease 1
  IC50: > 11 µM
Plasma kallikrein
  IC50: 790 nM
Homo sapiens
  Activity: 0.79 µM
Plasminogen
  IC50: > 11 µM
Coagulation factor X [2]
  Ki: 0.2 nM
[3]
  IC50: > 11 µM
[4]
  IC50: > 11 µM
Coagulation factor X [5]
  IC50: 0.7 nM
